Measurements reported in patent US5929254A, “1,2-dioxetane derivatives” (Fujirebio Inc., priority 1996, dated 1999).

Tests used:
[1] = Chemiluminescence on addition to tetrabutylammonium fluoride in DMSO, measured with a fluorescence analyzer; type: physicochemical; conditions: tetrabutylammonium fluoride 1.5×10^-1 M, 25° C.
Method: 1 ml of a […] dimethylsulfoxide(DMSO) solution of 4-(4-acetyl-3-hydroxyphenyl)-3,3-(bicyclo[3.3.1]nonan-3,7-diyl)-4-methoxy- 1,2-dioxethane (Compound [10]) synthesized in Example 2 was added to 2 ml of 1.5×10^-1 M DMSO solution of tetrabutylammonium fluoride at 25° C.
The luminescence at the moment of the addition of the compound [10] to the DMSO solution of tetrabutylammonium fluoride was measured with a fluorescence analyzer.
1 ml of a 2.94×10^-3 M dimethylsulfoxide (DMSO) solution of 3,3-(bicyclo[3.3.1]nonan-3,7-diyl)-4-(3-hydroxyphenyl)-4-methoxy-1,2-dioxetane (Comparative Compound) was added to 2 ml of 1.5×10^-1 M DMSO solution of tetrabutylammonium fluoride at 25° C.
The luminescence at the moment of the addition of the comparative compound to the DMSO solution of tetrabutylammonium fluoride was measured with a fluorescence analyzer in the same manner as in Example 1.

[2] = Chemiluminescence on addition to cesium hydroxide in methanol or aqueous methanol, measured with a fluorescence analyzer; type: physicochemical; conditions: 25° C.
Method: 1 ml of a 3.12×10^-3 M methanol solution of 4-(4-acetyl-3-hydroxyphenyl)-3,3-(bicyclo[3.3.1]nonan-3,7-diyl)-4-methoxy- 1,2-dioxethane (Compound [10]) synthesized in Example 2 was added to 2 ml of a 1.5×10^-1 M methanol solution of cesium hydroxide at 25° C.
The luminescence at the moment of the addition of the compound [10] to the methanol solution of cesium hydroxide was measured with a fluorescence analyzer in the same manner as in Test Example 1.
(§1) The measurement of the luminescence of the compound [10] in Test Example 2 was repeated in the same manner as in Test Example 2 except that the methanol used as the solvent for cesium hydroxide employed in Test Example 2 was replaced by an aqueous solution of methanol (water: 50%) without changing the concentration of cesium in the diluted methanol solution.
Thus, the luminescence at the moment of the addition of the compound [10] to the diluted methanol solution of cesium hydroxide was measured with a fluorescence analyzer in the same manner as in Test Example 1.
as §1, with “97%)” for “50%)”
1 ml of a 3.12×10^-3 M methanol solution of 3,3-(bicyclo[3.3.1]nonan-3,7-diyl)-4-(3-hydroxyphenyl)-4-methoxy-1,2-dioxetane (Comparative Compound) was added to 2 ml of a 1.5×10^-1 M methanol solution of cesium hydroxide at 25° C.
It was tried to measure the luminescence at the moment of the addition of the comparative compound to the methanol solution of cesium hydroxide with a fluorescence analyzer in the same manner as in Test Example 1.
(§2) The measurement of he luminescence of the comparative compound in Comparative Test Example 2 was repeated in the same manner as in Comparative Test Example 2 except that the methanol used as the solvent for cesium hydroxide employed in Comparative Test Example 2 was replaced by an aqueous solution of methanol (water: 50%) without changing the concentration of cesium in the diluted methanol solution.
Thus, the luminescence at the moment of the addition of the comparative compound to the diluted methanol solution of cesium hydroxide was measured with a fluorescence analyzer in the same manner as in Test Example 1.
as §2, with “of the” for “of he”, “(water: 97%)” for “(water: 50%)”

[3] = Aqueous solution of methanol (water: 50%), cesium hydroxide
[4] = Aqueous solution of methanol (water: 97%), cesium hydroxide
[5] = methanol solution of cesium hydroxide, in words
[6] = Methanol, cesium hydroxide 1.5×10^-1 M, compound 3.12×10^-3 M

Structure (SMILES) | Half-life (sec) of Luminescence [1] | Luminescence Quantum Efficiency [1] | λmax (nm) [1] | Half-life (sec) of Luminescence [2, 3] | Luminescence Quantum Efficiency [2, 3] | λmax (nm) [2, 3] | Half-life (sec) of Luminescence [2, 4] | Luminescence Quantum Efficiency [2, 4] | λmax (nm) [2, 4] | half-life of the luminescence [2, 5] | intensity of the luminescence [2, 5] | Half-life (sec) of Luminescence [2, 6] | Luminescence Quantum Efficiency [2, 6] | λmax (nm) [2, 6]
COC1(c2cccc(O)c2)OOC12C1CC3CC(C1)CC2C3 (centres unmarked) [Comparative Compound, 3,3-(bicyclo[3.3.1]nonan-3,7-diyl)-4-(3-hydroxyphenyl)-4-methoxy-1,2-dioxetane, reference compound] | 5.1 s | 0.22 | 465 nm | 452 s | 3.9 × 10^-5 | 472 nm | 173 s | 6.7 × 10^-6 | 474 nm | extremely long | extremely small |  |  | 
COC1(c2ccc(C(C)=O)c(O)c2)OOC12C1CC3CC(C1)CC2C3 (centres unmarked) [Compound [10], 4-(4-acetyl-3-hydroxyphenyl)-3,3-(bicyclo[3.3.1]nonan-3,7-diyl)-4-methoxy-1,2-dioxethane] | 23000 s | 0.13 | 486 nm | 29000 s | 0.023 | 496 nm | 8200 s | 0.0064 | 496 nm |  |  | 120000 s | 0.030 | 493 nm
